Measured values reported in patent publication US11952584B2, “Functional peptides having antimicrobial activity against phytopathogenic microorganisms” (TOYOTA JIDOSHA KABUSHIKI KAISHA, priority 2019, dated 2024).
Values joined by “and” are separate entries in the source; they are usually repeats but may differ in a detail not shown here. Equal values may be shown once. Read-outs that look alike come from different tables or passages of the source.

Experiments:
Botrytis cinerea [1] = format: cell-based; settings: 25° C., 1 day or 2 days
[2] = system: Colletotrichum destructivum; format: cell-based; settings: 25° C., 1 day or 2 days
[3] = system: Colletotrichum orbiculare; format: cell-based; settings: 25° C., 1 day or 2 days
Fusarium oxysporum = format: cell-based
Pyricularia oryzae = format: cell-based; settings: 25° C., 1 day or 2 days
[4] = system: plant pathogenic filamentous fungi; format: cell-based; settings: summary of Table 3
[5] = system: Colletotrichum destructivum; experiment: Colletotrichum destructivum leaf inoculation test (Chinese cabbage leaf); format: in vivo; settings: 25° C., 4 days, lesions by visual inspection
Text: In the present example, a suspension comprising Colletotrichum destructivum and a peptide to be tested was dropped on a plant leaf, and lesions were then observed by visual inspection to evaluate the antimicrobial activity of the tested peptide. First, the pores of Colletotrichum destructivum were suspended in water to result in a spore concentration of 5×10^5 spores/ml, so as to prepare a water suspension of spores. Subsequently, peptides to be tested (TsORF18 (full length), TsORF18-40 a.a., and TsORF18-2) were each added to the water suspension of spores, so that the final concentration of the peptides to be tested became 0 μM, 1 μM, 10 μM or 100 μM. Thereafter, 10 μl each of the water suspension of spores containing the peptide to be tested was dropped on the front side and the back side of the leaf of Chinese cabbage (variety name: “Kigokoro 85”). In this condition, incubation was carried out at 25° C. for 4 days. Thereafter, the front and back sides of the leaf were observed by visual inspection.

Botrytis cinerea [6] = experiment: Botrytis cinerea leaf inoculation test (tomato leaf); format: in vivo; settings: peptide 100 μM; tomato leaf, 25° C., 2 days, lesions by visual inspection
Experimental: In the present example, a suspension comprising Botrytis cinerea and a peptide to be tested was dropped on a plant leaf, and lesions were then observed by visual inspection to evaluate the antimicrobial activity of the tested peptide. First, the pores of Botrytis cinerea were suspended in a potato dextrose broth (PDB) to result in a spore concentration of 5×10^5 spores/ml, so as to prepare a PDB suspension spore solution. Subsequently, a peptide to be tested (TsORF18-2) was added to the PDB suspension spore solution, so that the final concentration of the peptide to be tested became 0 μM, 1 μM, 10 μM or 100 μM. It is to be noted that, as peptides to be tested, TsORF18 (full length) and TsORF18-40 a.a. were also used in the same manner as that of TsORF18-2. TsORF18 (full length) was dissolved in DMSO and was then used. On the other hand, TsORF18-2 and TsORF18-40 a.a were each dissolved in Milli-Q water and were then used. Thereafter, 10 μl each of the PDB suspension spore solution containing the peptide to be tested was dropped on the front side and the back side of the leaf of tomato (variety name: “Ponte Rosa”). In this condition, incubation was carried out at 25° C. for 2 days. Thereafter, the front and back sides of the leaf were observed by visual inspection.

Substance | Plate antimicrobial activity test Botrytis cinerea (level) (Botrytis cinerea [1]; peptide 1 μM) | Plate antimicrobial activity test Botrytis cinerea (level) (Botrytis cinerea [1]; peptide 10 μM) | Plate antimicrobial activity test Botrytis cinerea (level) (Botrytis cinerea [1]; peptide 100 μM) | Plate antimicrobial activity test Colletotrichum destructivum (level) ([2]; peptide 1 μM) | Plate antimicrobial activity test Colletotrichum destructivum (level) ([2]; peptide 10 μM) | Plate antimicrobial activity test Colletotrichum destructivum (level) ([2]; peptide 100 μM) | Plate antimicrobial activity test Collectotrichum orbiculare (level) ([3]; peptide 1 μM) | Plate antimicrobial activity test Collectotrichum orbiculare (level) ([3]; peptide 10 μM) | Plate antimicrobial activity test Collectotrichum orbiculare (level) ([3]; peptide 100 μM) | Plate antimicrobial activity test Fusarium oxysporum (level) (Fusarium oxysporum) | Plate antimicrobial activity test Pyricularia oryzae (level) (Pyricularia oryzae; peptide 1 μM) | Plate antimicrobial activity test Pyricularia oryzae (level) (Pyricularia oryzae; peptide 10 μM) | Plate antimicrobial activity test Pyricularia oryzae (level) (Pyricularia oryzae; peptide 100 μM) | germination inhibitory activity against plant pathogenic filamentous fungi (in words) [4] | Leaf inoculation test Chinese cabbage/Colletotrichum destructivum ([5]; peptide 10 μM) | Leaf inoculation test Chinese cabbage/Colletotrichum destructivum ([5]; peptide 100 μM) | Leaf inoculation test Tomato/Botrytis cinerea (Botrytis cinerea [6]) | Leaf inoculation test Chinese cabbage/Colletotrichum destructivum ([5]; peptide 1 μM)
WRIWK (listed as Solanum lycopersicum) [TsORF18-2-5aa-15] | 0 | 0 | 3 | 0 | 0 | 3 | 0 | 0 | 2 | 2 and 0 | 0 | 0 | 0 | extremely excellent germination inhibitory activity |  |  |  | 
RKFWR (listed as Solanum lycopersicum) [TsORF18-2-5aa-12] | 0 | 0 | 3 | 0 | 0 | 3 | 0 | 0 | 2 | 3 and 0 | 0 | 0 | 0 | extremely excellent germination inhibitory activity | ∘ | ∘ |  | 
KFWRIWKG (listed as Solanum lycopersicum) [TsORF18-2-8aa-13] | 0 | 0 | 3 | 0 | 0 | 3 | 0 | 0 | 3 | 3 and 2 and 0 | 0 | 0 | 0 | extremely excellent germination inhibitory activity | ∘ | ∘ | ∘ | 
KFWRI (listed as Solanum lycopersicum) [TsORF18-2-5aa-13] | 0 | 0 | 3 | 0 | 0 | 3 | 0 | 0 | 3 | 3 and 0 | 0 | 0 | 1 | extremely excellent germination inhibitory activity | ∘ | ∘ |  | 
WRIWKGKT (listed as Solanum lycopersicum) [TsORF18-2-8aa-15] | 0 | 0 | 3 | 0 | 0 | 3 | 0 | 0 | 3 | 3 and 0 | 0 | 0 | 0 | extremely excellent germination inhibitory activity |  |  |  | 
FWRIWKGK (listed as Solanum lycopersicum) [TsORF18-2-8aa-14] | 0 | 0 | 3 | 0 | 0 | 3 | 0 | 0 | 3 | 3 and 0 | 0 | 0 | 0 | extremely excellent germination inhibitory activity | ∘ | ∘ |  | Δ
ERTRKFWR (listed as Solanum lycopersicum) [TsORF18-2-8aa-9] | 0 | 0 | 3 | 0 | 0 | 0 | 0 | 0 | 1 | 3 and 0 | 0 | 0 | 1 | extremely excellent germination inhibitory activity |  |  |  | 
RTRKFWRI (listed as Solanum lycopersicum) [TsORF18-2-8aa-10] | 0 | 0 | 3 | 0 | 0 | 3 | 0 | 0 | 3 | 3 and 1 and 0 | 0 | 0 | 1 | extremely excellent germination inhibitory activity | ∘ | ∘ |  | 
